Assay results: patent US10780090B2, “Heteroaryl compounds useful as inhibitors of SUMO activating enzyme” (Millennium Pharmaceuticals, Inc., priority 2014, dated 2020)

Target: recombinant human SAE enzyme (Homo sapiens (Human), UniProt Q9UBT2)
Assay: SAE HTRF enzyme assay
Assay type: biochemical
Conditions: for inhibition at 0.111 µM: read-out: Percent Inhibition
Procedure, shortened: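 This HTRF format monitors Sumo-Flag–Ubc9-GST thioester formation catalysed by 0.11 nM human SAE with 0.5 μM ATP over 105 min at 24° C. Inhibition is expressed at a single concentration or as IC50.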

[1] = SAE inhibition at compound concentration 0.111 μM
[2] = SAE inhibition, class symbols, legend in nM

recombinant human SAE enzyme, sequence (Q9UBT2 whole entry): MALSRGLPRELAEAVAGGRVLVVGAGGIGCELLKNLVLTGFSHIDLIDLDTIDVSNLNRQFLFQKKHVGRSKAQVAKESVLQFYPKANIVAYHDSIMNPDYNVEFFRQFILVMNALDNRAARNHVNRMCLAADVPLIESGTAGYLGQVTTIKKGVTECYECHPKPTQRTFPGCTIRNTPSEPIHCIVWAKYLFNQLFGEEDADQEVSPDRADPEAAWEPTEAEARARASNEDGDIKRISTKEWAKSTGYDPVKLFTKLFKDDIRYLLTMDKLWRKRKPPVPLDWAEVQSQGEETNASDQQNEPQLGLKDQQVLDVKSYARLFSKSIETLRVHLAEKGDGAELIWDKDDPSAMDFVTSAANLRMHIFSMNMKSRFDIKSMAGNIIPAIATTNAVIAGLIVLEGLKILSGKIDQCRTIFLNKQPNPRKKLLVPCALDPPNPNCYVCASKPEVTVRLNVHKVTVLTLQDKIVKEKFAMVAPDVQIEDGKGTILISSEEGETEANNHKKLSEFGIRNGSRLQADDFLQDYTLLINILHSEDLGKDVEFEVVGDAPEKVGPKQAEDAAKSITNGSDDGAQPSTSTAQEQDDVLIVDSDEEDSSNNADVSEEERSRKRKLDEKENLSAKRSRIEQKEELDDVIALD
recombinant human SAE enzyme, sequence (Q9UBE0 whole entry partner): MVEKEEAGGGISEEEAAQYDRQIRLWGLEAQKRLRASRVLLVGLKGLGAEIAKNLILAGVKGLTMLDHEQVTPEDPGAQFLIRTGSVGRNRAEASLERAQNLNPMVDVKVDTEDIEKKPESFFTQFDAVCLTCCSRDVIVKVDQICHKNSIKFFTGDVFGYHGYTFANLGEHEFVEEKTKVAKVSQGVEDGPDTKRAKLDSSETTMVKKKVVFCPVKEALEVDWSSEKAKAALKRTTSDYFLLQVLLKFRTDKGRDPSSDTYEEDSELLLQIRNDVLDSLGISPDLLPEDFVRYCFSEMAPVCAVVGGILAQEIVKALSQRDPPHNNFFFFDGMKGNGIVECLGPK

SMILES	Percent Inhibition (Concentration 0.111 μM)	IC50 (class symbols A/B/C)	Percent Inhibition [1]	IC50 [2]	inhibition at 0.111 µM (Concentration 0.111 μM)
CC(N)(c1cccc(Cl)c1)c1csc(C(=O)c2cncnc2N[C@@H]2C[C@H](COS(N)(=O)=O)[C@@H](O)[C@H]2O)c1 (single isomer, unassigned) [I-8b, [(1R,2R,3S,4R)-4-{[5-({4-[(1S)-1-amino-1-(3-chlorophenyl)ethyl]-2-thienyl}carbonyl)pyrimidin-4-yl]amino}-2,3-dihydroxycyclopentyl]methyl sulfamate or [(1R,2R,3S,4R)-4-{[5-({4-[(1R)-1-amino-1-(3-chlorophenyl)ethyl]-2-thienyl}carbonyl)pyrimidin-4-yl]amino}-2,3-dihydroxycyclopentyl]methyl sulfamate]	99	< 10 nM			
NS(=O)(=O)OC[C@H]1C[C@@H](Nc2ncncc2C(=O)c2cc([C@H](O)c3cccc(Cl)c3)c(Cl)s2)C[C@@H]1O (single isomer, unassigned) [I-9a, [(1R,2S,4R)-4-{[5-({5-chloro-4-[(R)-(3-chlorophenyl)(hydroxy)methyl]-2-thienyl}carbonyl)pyrimidin-4-yl]amino}-2-hydroxycyclopentyl]methyl sulfamate or [(1R,2S,4R)-4-{[5-({5-chloro-4-[(S)-(3-chlorophenyl)(hydroxy)methyl]-2-thienyl}carbonyl)pyrimidin-4-yl]amino}-2-hydroxycyclopentyl]methyl sulfamate]	99	< 10 nM			
Cc1sc(C(=O)c2cncnc2N[C@@H]2C[C@H](COS(N)(=O)=O)[C@@H](O)C2)cc1[C@H]1OCC(F)(F)c2ccc(Cl)nc21 (single isomer, unassigned) [I-260b, [(1R,2S,4R)-4-{[5-({4-[(8R)-2-chloro-5,5-difluoro-5,8-dihydro-6H-pyrano[3,4-b]pyridin-8-yl]-5-methyl-2-thienyl}carbonyl)pyrimidin-4-yl]amino}-2-hydroxycyclopentyl]methyl sulfamate or [(1R,2S,4R)-4-{[5-({4-[(8S)-2-chloro-5,5-difluoro-5,8-dihydro-6H-pyrano[3,4-b]pyridin-8-yl]-5-methyl-2-thienyl}carbonyl)pyrimidin-4-yl]amino}-2-hydroxycyclopentyl]methyl sulfamate]	98	< 10 nM			
C[C@](N)(c1cccc(Cl)c1)c1csc(C(=O)c2cncnc2N[C@@H]2C[C@H](COS(N)(=O)=O)[C@@H](O)C2)c1 (single isomer, unassigned) [I-12a, [(1R,2S,4R)-4-{[5-({4-[(1S)-1-amino-1-(3-chlorophenyl)ethyl]-2-thienyl}carbonyl)pyrimidin-4-yl]amino}-2-hydroxycyclopentyl]methyl sulfamate or [(1R,2S,4R)-4-{[5-({4-[(1R)-1-amino-1-(3-chlorophenyl)ethyl]-2-thienyl}carbonyl)pyrimidin-4-yl]amino}-2-hydroxycyclopentyl]methyl sulfamate]	84	10 to 100 nM			
NS(=O)(=O)OC[C@H]1C[C@@H](Nc2ncncc2C(=O)c2cc([C@@H]3NCCc4ccc(Br)cc43)c(Cl)s2)[C@H](O)[C@@H]1O (mixture of isomers) [I-259, [(1R,2R,3S,4R)-4-{[5-({4-[(1R)-7-bromo-1,2,3,4-tetrahydroisoquinolin-1-yl]-5-chloro-2-thienyl}carbonyl)pyrimidin-4-yl]amino}-2,3-dihydroxycyclopentyl]methyl sulfamate and [(1R,2R,3S,4R)-4-{[5-({4-[(1S)-7-bromo-1,2,3,4-tetrahydroisoquinolin-1-yl]-5-chloro-2-thienyl}carbonyl)pyrimidin-4-yl]amino}-2,3-dihydroxycyclopentyl]methyl sulfamate]	99	< 10 nM			
C[C@@](O)(c1cccc(Cl)c1)c1cc(C(=O)c2cncnc2N[C@@H]2C[C@H](COS(N)(=O)=O)[C@@H](O)C2)sc1Cl (mixture of isomers) [I-102, [(1R,2S,4R)-4-{[5-({5-Chloro-4-[(1S)-1-(3-chlorophenyl)-1-hydroxyethyl]-2-thienyl}carbonyl)pyrimidin-4-yl]amino}-2-hydroxycyclopentyl]methyl sulfamate and [(1R,2S,4R)-4-{[5-({5-Chloro-4-[(1R)-1-(3-chlorophenyl)-1-hydroxyethyl]-2-thienyl}carbonyl)pyrimidin-4 yl]amino}-2-hydroxycyclopentyl]methyl sulfamate]	94	< 10 nM			
COc1ccc(Cl)cc1[C@@H](O)c1cc(C(=O)c2cncnc2N[C@@H]2C[C@H](COS(N)(=O)=O)[C@@H](O)C2)sc1Cl (mixture of isomers) [I-63, [(1R,2S,4R)-4-{[5-({5-chloro-4-[(R)-(5-chloro-2-methoxyphenyl)(hydroxy)methyl]-2-thienyl}carbonyl)pyrimidin-4-yl]amino}-2-hydroxycyclopentyl]methyl sulfamate and [(1R,2S,4R)-4-{[5-({5-chloro-4-[(S)-(5-chloro-2-methoxyphenyl)(hydroxy)methyl]-2-thienyl}carbonyl)pyrimidin-4-yl]amino}-2-hydroxycyclopentyl]methyl sulfamate]	97	< 10 nM			
COc1ccc2c(n1)[C@H](c1cc(C(=O)c3cncnc3N[C@@H]3C[C@H](COS(N)(=O)=O)[C@@H](O)C3)sc1C)OCC2 (single isomer, unassigned) [I-339a, [(1R,2S,4R)-2-hydroxy-4-{[5-({4-[(8S)-2-methoxy-5,8-dihydro-6H-pyrano[3,4-b]pyridin-8-yl]-5-methyl-2-thienyl}carbonyl)pyrimidin-4-yl]amino}cyclopentyl]methyl sulfamate or [(1R,2S,4R)-2-hydroxy-4-{[5-({4-[(8R)-2-methoxy-5,8-dihydro-6H-pyrano[3,4-b]pyridin-8-yl]-5-methyl-2-thienyl}carbonyl)pyrimidin-4-yl]amino}cyclopentyl]methyl sulfamate]			99%	< 10 nM	
NS(=O)(=O)OC[C@H]1C[C@@H](Nc2ncncc2C(=O)c2cc([C@H]3OCCc4ccc(Cl)cc43)cs2)C[C@@H]1O (mixture of isomers) [I-261, [(1R,2S,4R)-4-{[5-({4-[(1R)-7-chloro-3,4-dihydro-1H-isochromen-1-yl]-2-thienyl}carbonyl)pyrimidin-4-yl]amino}-2-hydroxycyclopentyl]methyl sulfamate and [(1R,2S,4R)-4-{[5-({4-[(1S)-7-chloro-3,4-dihydro-1H-isochromen-1-yl]-2-thienyl}carbonyl)pyrimidin-4-yl]amino}-2-hydroxycyclopentyl]methyl sulfamate]	99	< 10 nM			
NS(=O)(=O)OC[C@H]1C[C@@H](Nc2ncncc2C(=O)c2cc(Cc3ccc(C(F)(F)F)o3)cs2)C[C@@H]1O [I-119, [(1R,2S,4R)-2-Hydroxy-4-{(5-[(4-{[5-(trifluoromethyl)-2-furyl]methyl}-2-thienyl)carbonyl]pyrimidin-4-yl}amino)cyclopentyl]methyl sulfamate]		< 10 nM			96%
C=C(c1cccc(Cl)c1)c1cc(C(=O)c2cncnc2N[C@@H]2C[C@H](COS(N)(=O)=O)[C@@H](O)C2)sc1C [I-100, [(1R,2S,4R)-4-{[5-({4-[1-(3-Chlorophenyl)vinyl]-5-methyl-2-thienyl}carbonyl)pyrimidin-4-yl]amino}-2-hydroxycyclopentyl]methyl sulfamate]		< 10 nM			97%
Cc1ccc2c(c1)[C@H](c1cc(C(=O)c3cncnc3N[C@@H]3C[C@H](COS(N)(=O)=O)[C@@H](O)C3)sc1C)OCC2 (mixture of isomers) [I-347, [(1R,2S,4R)-2-hydroxy-4-{[5-({5-methyl-4-[(1R)-7-methyl-3,4-dihydro-1H-isochromen-1-yl]-2-thienyl}carbonyl)pyrimidin-4-yl]amino}cyclopentyl]methyl sulfamate and [(1R,2S,4R)-2-hydroxy-4-{[5-({5-methyl-4-[(1S)-7-methyl-3,4-dihydro-1H-isochromen-1-yl]-2-thienyl}carbonyl)pyrimidin-4-yl]amino}cyclopentyl]methyl sulfamate]			97%	< 10 nM	
Cc1sc(C(=O)c2cncnc2N[C@@H]2C[C@H](COS(N)(=O)=O)[C@@H](O)C2)cc1[C@H](N)c1cccc(Cl)c1 (single isomer, unassigned) [I-6b, [(1R,2S,4R)-4-{[5-({4-[(R)-amino(3-chlorophenyl)methyl]-5-methyl-2-thienyl}carbonyl)pyrimidin-4-yl]amino}-2-hydroxycyclopentyl]methyl sulfamate or [(1R,2S,4R)-4-{[5-({4-[(S)-amino(3-chlorophenyl)methyl]-5-methyl-2-thienyl}carbonyl)pyrimidin-4-yl]amino}-2-hydroxycyclopentyl]methyl sulfamate]	98	< 10 nM			
NS(=O)(=O)OC[C@H]1C[C@@H](Nc2ncncc2C(=O)c2cc([C@@H]3OCCc4cc(F)c(F)cc43)cs2)C[C@@H]1O (single isomer, unassigned) [I-273, [(1R,2S,4R)-4-{[5-({4-[(1R)-6,7-Difluoro-3,4-dihydro-1H-isochromen-1-yl]-2-thienyl}carbonyl)pyrimidin-4-yl]amino}-2-hydroxycyclopentyl]methyl sulfamate or [(1R,2S,4R)-4-{[5-({4-[(1S)-6,7-Difluoro-3,4-dihydro-1H-isochromen-1-yl]-2-thienyl}carbonyl)pyrimidin-4-yl]amino}-2-hydroxycyclopentyl]methyl sulfamate]	99	< 10 nM			
